Measurements reported in US7868204B2, “Inhibitors of histone deacetylase” (MethylGene Inc., priority 2001, dated 2011).
Read-outs that look alike come from different tables or passages of the source.

Assays:
[1] = system: HCT116 cells; assay: MTT assay; type: cell-based; settings: Homo sapiens, HCT116 cells, 72 hours
Procedure, shortened: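 Read-out: MTT (0.5 mg/ml final, 4 h) after solubilization in 50% DMF/20% SDS, pH 4.7, with OD translated into cell number via the line's growth curve. Compound treatment lasted 72 h at 37 °C in 5% CO2, starting a day after plating.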

[2] = molecular target: T1, cloned recombinant human HDAC-1 (Homo sapiens, UniProt Q13547); assay: Human HDAC-1 enzyme inhibition, Assay 1 ([3H]-acetylated histone substrate, scintillation counting); type: biochemical
T1 construct: made in house; host or cells: Baculovirus insect cell expression system
T1 sequence (Q13547 whole entry): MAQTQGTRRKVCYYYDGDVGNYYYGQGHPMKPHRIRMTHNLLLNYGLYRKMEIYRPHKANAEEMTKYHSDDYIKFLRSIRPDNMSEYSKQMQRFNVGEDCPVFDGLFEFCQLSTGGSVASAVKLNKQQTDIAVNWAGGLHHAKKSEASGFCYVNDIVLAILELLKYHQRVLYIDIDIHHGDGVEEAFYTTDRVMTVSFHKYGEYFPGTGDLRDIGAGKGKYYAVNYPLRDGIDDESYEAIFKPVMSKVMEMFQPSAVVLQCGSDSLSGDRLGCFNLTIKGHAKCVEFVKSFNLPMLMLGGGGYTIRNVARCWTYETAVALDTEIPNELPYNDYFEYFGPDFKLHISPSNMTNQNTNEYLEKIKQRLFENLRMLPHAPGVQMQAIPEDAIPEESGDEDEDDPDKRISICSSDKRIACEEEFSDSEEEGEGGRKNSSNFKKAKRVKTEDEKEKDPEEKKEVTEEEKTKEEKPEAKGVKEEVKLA
Procedure, shortened: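 Activity read as [3H]-acetic acid liberated from labeled substrate, ethyl acetate-extracted and scintillation-counted. Compounds preincubated 30 min at 4° C. with baculovirus-expressed, purified human HDAC-1. Dose-response curves give IC50 as concentration producing fifty percent of maximal inhibition.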

[3] = system: acetylated histone H-4 in T24 human bladder cancer cells; assay: Histone H4 acetylation in whole cells by immunoblots; type: cell-based; settings: 16 h
Procedure: T24 human bladder cancer cells growing in culture were incubated with HDAC inhibitors for 16 h. […] of total histone protein was loaded onto SDS/PAGE and transferred to nitrocellulose membranes. Membranes were probed with polyclonal antibodies specific for acetylated histone H-4 (Upstate Biotech Inc.), followed by horse radish peroxidase conjugated secondary antibodies (Sigma). Enhanced Chemiluminescence (ECL) (Amersham) detection was performed using Kodak films (Eastman Kodak). Acetylated H-4 signal was quantified by densitometry.

[4] = Table 5F, read-out: Human HDAC-1 IC50
[5] = T-24, Table 5F, read-out: H4 Ac (T24) EC50
[6] = Table 5a, read-out: Human HDAC-1 IC50
[7] = T-24, Table 5a, read-out: H4Ac (T24) EC50
[8] = Table 5E, read-out: Human HDAC-1 IC50
[9] = T-24, Table 5E, read-out: H4 Ac (T24) EC50
[10] = Table 5d, read-out: HDAC-1 IC50
[11] = T-24, Table 5d, read-out: H4Ac(T24) EC50

Row | SMILES | IC50 ([1]; HCT-116, 72 h, Table 5F) | IC50 [2, 4] | EC50 [3, 5] | also measured
1 | C=CCNc1nc(NCc2ccc(C(=O)Nc3ccccc3N)cc2)nc(NC2Cc3ccccc3C2)n1 [Cpd 18] | – | – | – | IC50 ([1]; HCT-116, 72 h, Table 5a): 0.6 µM; IC50 [2, 6]: 0.8 µM; EC50 [3, 7]: 3 µM
2 | COc1ccc(CSc2ccc(C(=O)Nc3ccccc3N)cn2)cc1 [Cpd 171] | – | – | – | IC50 ([1]; HCT-116, 72 h, Table 5E): 3 µM; IC50 [2, 8]: 8 µM; EC50 [3, 9]: 25 µM
3 | Nc1ccccc1NC(=O)c1ccc(Cn2c(=O)c3ccccc3n(CCN3CCOCC3)c2=O)cc1 [Cpd 341] | 1 µM | 4 µM | 3 µM | –
4 | COc1cc(CNc2ccc3oc(C(=O)Nc4ccccc4N)cc3c2)cc(OC)c1OC [Cpd 592, 5-(3,4,5-Trimethoxy-benzylamino)-benzofuran-2-carboxylic acid (2-amino-phenyl)-amide] | 0.4 µM | 5 µM | < 1 µM | –
5 | COc1ccc(NCc2ccc(C(=O)Nc3cc(F)c(F)cc3N)cc2)cc1OC [Cpd 454, N-(2-Amino-4,5-difluoro-phenyl)-4-[(3,4-dimethoxy-phenylamino)-methyl]-benzamide] | 2 µM | 4 µM | 5 µM | –
6 | Nc1nc(NCc2ccc(C(=O)Nc3ccccc3N)cc2)nc(NC2c3ccccc3-c3ccccc32)n1 [Cpd 14, 4-{[4-Amino-6-(9H-fluoren-9-ylamino)-[1,3,5]triazin-2-ylamino]-methyl)-N-(2-amino-phenyl)-benzamide] | – | – | – | IC50 ([1]; HCT-116, 72 h, Table 5a): 1 µM; IC50 [2, 6]: 0.3 µM; EC50 [3, 7]: 5 µM
7 | COc1cc(NCc2ccc(/C=C/C(=O)Nc3cscc3N)cc2)cc(OC)c1OC [Cpd 570] | – | – | – | IC50 ([1]; HCT-116, Table 5d): 0.6 µM; IC50 [2, 10]: 6 µM; EC50 [3, 11]: 2 µM
8 | Nc1ccccc1NC(=O)/C=C/c1ccc(CNc2ccc(Cc3ccncc3)cc2)cc1 [Cpd 531, N-(2-Amino-phenyl)-3-{4-[(4-pyridin-4-ylmethyl-phenylamino)-methyl]-phenyl}-acrylamide] | – | – | – | IC50 ([1]; HCT-116, Table 5d): 2 µM; IC50 ([2]; HDAC-1 IC50, Table 5d): 3 µM; EC50 [3, 11]: 20 µM
9 | COc1ccc(NCc2ccc3oc(C(=O)Nc4ccccc4N)cc3c2)cc1OC [compound 587, 5-[(3,4-Dimethoxy-phenylamino)-methyl]-benzofuran-2-carboxylic acid (2-amino-phenyl)-amide] | 0.8 µM | 5 µM | 2 µM | –
10 | Nc1ccccc1NC(=O)c1ccc(Cn2c(=O)[nH]c3ccsc3c2=O)cc1 [Cpd 343, N-(2-Amino-phenyl)-4-(2,4-dioxo-1,4-dihydro-2H-thieno[3,2-d]pyrimidin-3-ylmethyl)-benzamide] | 0.3 µM | 0.5 µM | 1 µM | –
11 | CN1CCN(c2ccc(NCc3ccc(/C=C/C(=O)Nc4ccccc4N)cc3)cc2C(F)(F)F)CC1 [Cpd 526] | – | – | – | IC50 ([1]; HCT-116, Table 5d): 0.8 µM; IC50 [2, 10]: 2 µM; EC50 [3, 11]: 1 µM
12 | Nc1ccccc1NC(=O)c1ccc(NCCc2ccc(F)cc2)nc1 [Cpd 174] | – | – | – | IC50 ([1]; HCT-116, 72 h, Table 5E): 0.4 µM; IC50 [2, 8]: 4 µM; EC50 [3, 9]: 5 µM
13 | COc1ccc2[nH]c(SCc3ccc4oc(C(=O)Nc5ccccc5N)cc4c3)nc2c1 [Cpd 591, 5-(5-Methoxy-1H-benzoimidazol-2-ylsulfanyl-methyl)-benzofuran-2-carboxylic acid (2-amino-phenyl)amide] | 0.3 µM | 4 µM | < 1 µM | –
14 | Nc1ccccc1NC(=O)c1ccc(CSc2nc3ccc(NCc4ccccn4)cc3s2)cc1 [Cpd 326, N-(2-Amino-phenyl)-4-{6-[(pyridin-2-ylmethyl)-amino]-benzothiazol-2-ylsulfanylmethyl}-benzamide] | 1 µM | 1 µM | 3 µM | –
15 | Nc1ccccc1NC(=O)c1ccc(CC2Oc3ccccc3NC2=O)cc1 (stereo not drawn) [compound 270, N-(2-Amino-phenyl)-4-(3-oxo-3,4-dihydro-2H-benzo[1,4]oxazin-2-ylmethyl)-benzamide] | 1 µM | 4 µM | 5 µM | –
16 | COc1nc(NCc2ccc(C(=O)Nc3ccccc3N)cc2)nc(NC2Cc3ccccc3C2)n1 [Cpd 214] | – | – | – | IC50 ([1]; HCT-116, 72 h, Table 5b): 0.9 µM; IC50 ([2]; Table 5b, read-out: Human HDAC-1 IC50): 3 µM; EC50 ([3]; T-24, Table 5b, read-out: H4Ac (T24) EC50): 1 µM
17 | COc1cc(OC)nc(NCc2ccc(/C=C/C(=O)Nc3ccccc3N)cc2)n1 [Cpd 492, N-(2-Amino-phenyl)-3-{4-[(4,6-dimethoxy-pyrimidin-2-ylamino)-methyl]-phenyl}-acrylamide] | – | – | – | IC50 ([1]; HCT-116, Table 5d): 9 µM; IC50 [2, 10]: 4 µM; EC50 [3, 11]: 10 µM
18 | COc1cc(N2CC(c3ccc(C(=O)Nc4ccccc4N)cc3)OC2=O)cc(OC)c1OC (stereo not drawn) [compound 297, N-(2-Amino-phenyl)-4-[2-oxo-3-(3,4,5-trimethoxy-phenyl)-oxazolidin-5-yl]-benzamide] | 0.4 µM | 7 µM | 1 µM | –
19 | Nc1ccccc1NC(=O)c1ccc(CSc2nc3ccccc3s2)cc1 [Cpd 172] | – | – | – | IC50 ([1]; HCT-116, 72 h, Table 5E): 1 µM; IC50 [2, 8]: 0.4 µM; EC50 [3, 9]: 3 µM
20 | Nc1ccccc1NC(=O)c1ccc(CC2COc3ccccc3C2)cc1 (stereo not drawn) [compound 265, N-(2-Amino-phenyl)-4-chroman-3-ylmethyl-benzamide] | 2 µM | 2 µM | 3 µM | –

More lines, main results first:

Row | IC50 ([1]; HCT-116, 72 h, Table 5F) | IC50 [2, 4] | EC50 [3, 5] | SMILES | also measured
21 | 1 µM | 2 µM | 10 µM | Nc1ccccc1NC(=O)c1ccc(NCc2ccc(OC(F)(F)F)cc2)cc1 [Cpd 426, N-(2-Amino-phenyl)-4-(4-trifluoromethoxy-benzylamino)-benzamide] | –
22 | 1 µM | 2 µM | 1 µM | CN(C)CCn1c(=O)n(Cc2ccc(C(=O)Nc3ccccc3N)cc2)c(=O)c2ccccc21 [Cpd 340, N-(2-Amino-phenyl)-4-[1-(2-dimethylamino-ethyl)-2,4-dioxo-1,4-dihydro-2H-quinazolin-3-ylmethyl]-benzamide] | –
23 | 0.3 µM | 3 µM | 2 µM | COCCN1C(=O)c2ccc(NCc3ccc(C(=O)Nc4ccccc4N)cc3)cc2C1=O [Cpd 458, N-(2-Amino-phenyl)-4-([2-(2-methoxy-ethyl)-1,3-dioxo-2,3-dihydro-1H-isoindol-5-ylamino]-methyl}-benzamide] | –
24 | 0.4 µM | 4 µM | 2 µM | Nc1ccccc1NC(=O)c1ccc(CNc2ncc(Br)s2)cc1 [Cpd 467, N-(2-Amino-phenyl)-4-[(5-bromo-thiazol-2-ylamino)-methyl]-benzamide] | –
25 | 1 µM | 2 µM | 2 µM | Nc1ccccc1NC(=O)c1ccc(CSc2ccccn2)cc1 [Cpd 381] | –
26 | 1 µM | 3 µM | 2 µM | Nc1ccccc1NC(=O)c1ccc(Cc2noc(-c3ccncc3)n2)cc1 [Cpd 358, N-(2-Amino-phenyl)-4-(5-pyridin-4-yl-[1,2,4]oxadiazol-3-ylmethyl)-benzamide] | –
27 | 0.3 µM | 4 µM | < 1 µM | CNc1nc2ccc(NCc3ccc(C(=O)Nc4ccccc4N)cc3)cc2n1C [Cpd 580] | –
28 | 0.7 µM | 3 µM | 1 µM | Nc1ccccc1NC(=O)c1ccc(CNc2nc(Cl)cc(NCc3cccnc3)n2)cc1 [Cpd 420, N-(2-Amino-phenyl)-4-({4-chloro-6-[(pyridin-3-ylmethyl)-amino]-pyrimidin-2-ylamino]-methyl)-benzamide] | –
29 | 1 µM | 3 µM | 1 µM | CC(=O)c1cc2c(cc1NCc1ccc(C(=O)Nc3ccccc3N)cc1)OCO2 [Cpd 386, 4-[(6-Acetyl-benzo[1,3]dioxol-5-ylamino)-methyl]-N-(2-amino-phenyl)-benzamide] | –
30 | 0.3 µM | 1 µM | 1 µM | Nc1ccccc1NC(=O)c1ccc(Cn2c(=O)oc3ccccc3c2=O)cc1 [Cpd 179] | –
31 | 0.7 µM | 2 µM | 2 µM | Cc1cc(C)nc(SCc2ccc(C(=O)Nc3ccccc3N)cc2)n1 [Cpd 378, N-(2-Amino-phenyl)-4-(4,6-dimethyl-pyrimidin-2-ylsulfanylmethyl)-benzamide] | –
32 | 1 µM | 0.5 µM | 3 µM | Nc1ccccc1NC(=O)c1ccc(CNc2cccc(OC(F)(F)F)c2)cc1 [Cpd 423, N-(2-Amino-phenyl)-4-[(3-trifluoromethoxy-phenylamino)-methyl]-benzamide] | –
33 | 0.6 µM | 2 µM | 2 µM | Nc1ccccc1NC(=O)c1ccc(Cn2nnc3ccc(Br)cc3c2=O)cc1 [Cpd 347, N-(2-Amino-phenyl)-4-(6-bromo-4-oxo-4H-benzo[d][1,2,3]triazin-3-ylmethyl)-benzamide] | –
34 | 0.8 µM | 2 µM | 1 µM | COCCn1cnc2c(NCc3ccc(C(=O)Nc4ccccc4N)cc3)nc(Cl)nc21 [Cpd 243] | –
35 | 0.6 µM | 5 µM | 1 µM | CSc1cccc(NCc2ccc(C(=O)Nc3ccccc3N)cc2)c1 [Cpd 438, N-(2-Amino-phenyl)-4-[(3-methylsulfanyl-phenylamino)-methyl]-benzamide] | –
